# Test results reported in patent US8211463B2, “Use of glycolipids as adjuvants” (Helmholtz-Zentrum Fuer Infektionsforschung GmbH, priority 2006, dated 2012).
# How the values were obtained:
# [1] = tested on: β-Gal-specific IgG isotypes; experiment: IgG isotype ELISA (IgG, IgG1, IgG2a) in sera of vaccinated mice; format: in vivo, Balb/c mice; conditions: for enhancement of β-Galactosidase-specific IgG secretion vs β-Gal alone / increase of β-Gal-specific IgG1 secretion vs β-Gal alone / increase of β-Gal-specific IgG2a secretion vs β-Gal alone / increase of β-Gal specific IgG1 secretion vs β-Gal alone / secretion of IgG2a isotype vs β-Gal alone: 10 μg glycolipid; for increase of β-Gal specific IgG1 secretion vs β-Gal alone / secretion of IgG2a isotype vs β-Gal alone: s.c. (parenteral); for enhancement of β-Galactosidase-specific IgG2a isotype vs β-Gal alone: 20 or 30 μg glycolipid, dose-dependent
# Method: Co-administration of β-Gal with 10 μg glycolipids 1, 5 and 6 induced β-Gal-specific systemic IgG responses in Balb/c mice. Balb/c mice were immunized by the i.n. or s.c. route with β-Gal alone or together with glycolipids 1, 5 and 6 three times at 2-wk intervals. 10 days after the final immunization, the immunized mice were sacrificed. The levels of β-Gal-specific titers of IgG isotypes were determined in Sera of mice immunized by the i.n. (A) and s.c. (B) route. […] Bars represent mean Ab titer or amount±SE in each group. Each group consists of five mice. Data are representative of three separate experiments.
# Co-administration of β-Gal with 20 or 30 μg glycolipids 5 and 6, respectively, induced β-Gal-specific systemic IgG responses in Balb/c mice. Balb/c mice were immunized by the i.n. or s.c. route with β-Gal alone or together with glycolipids 5 and 6 three times at 2-wk intervals. 10 days after the final immunization, the immunized mice were sacrificed. The levels of β-Gal-specific titers of IgG isotypes were determined in Sera of mice immunized by the i.n. (A) and s.c. (B) route. […] The parenteral administration of with β-Gal co-administered with 20 μg glycolipids 5 and 6 enhanced the β-Galactosidase-specific IgG1 isotype titer (>250000) in comparison to animals which were immunized with β-Gal alone. Bars represent mean Ab titer or amount±SE in each group. Each group consists of five mice. Data are representative of two separate experiments.
# Isotyp ELISA: 96-well Nunc-Immuno MaxiSorp assay plates (Nunc, Roskilde, Denmark) were coated with 100 μl of β-Gal (Boehringer, Mannheim, Germany) at 5 μg/ml in 0.05 M carbonate buffer (pH 8.2) per well. Serial two-fold dilutions of sera or lavages in PBS with 1% BSA and 0.05% Tween 20 were added (100 μl/well), and plates incubated for 2 h at 37° C. After washing, biotin-conjugated rat anti-mouse IgG1 or IgG2a (Pharmingen, Hamburg, Germany) were added to determine IgG subclasses. Plates were incubated for an additional 1 h at 37° C. After four washes, 100 μl of peroxidase-conjugated streptavidin (Pharmingen) was added to cells and plates incubated at 37° C. for 30 min. After four washes, reactions were developed with ABTS in 0.1 M citrate-phosphate buffer (pH 4.35) containing 0.01% H2O2. To determine the concentration of IgG subclasses in serum, standard curves were obtained by coating the wells with an isotype-specific goat anti-mouse IgG, and then by incubating with purified mouse IgG1 or IgG2a antibodies (Dianova, Hamburg, Germany).
# [2] = tested on: IFNγ, IL-2 and IL-4 secreting splenocytes; experiment: Elispot of cytokine-secreting splenocytes (IFNγ, IL-2, IL-4); format: in vivo, Balb/c mice; conditions: for spot forming units (SFU) secreting IFNγ / spot forming units (SFU) secreting IFNγ / cytokine secretion: i.n.; for spot forming units (SFU) secreting IFNγ / secretion of IFNγ, IL-2 and IL-4 (SFU) vs β-Gal alone: 10 μg glycolipid; for spot forming units (SFU) secreting IFNγ: MHC class I restricted β-Gal peptide 2 μg/ml, 24 h; for secretion of IFNγ, IL-2 and IL-4 (SFU) vs β-Gal alone / secretion of IFNγ, IL-2 and IL-4 (SFU) vs control animals: s.c. (parenteral); for spot forming units (SFU) secreting IFNγ / cytokine secretion / secretion of IFNγ, IL-2 and IL-4 (SFU) vs control animals: 20 up to 30 μg glycolipid
# Method: Co-administration of β-Gal with 10 μg glycolipids 1, 5 and 6 induced a strong cellular immune responses and enhanced levels of IFNγ, IL-2 and IL-4 in response to enhanced concentration of the β-Gal antigen in Balb/c mice. Balb/c mice were immunized by the i.n. or s.c. route with β-Gal alone or together with glycolipids 1, 5 and 6 three times at 2-wk intervals. 10 days after the final immunization, the immunized mice were sacrificed. Splenocytes of mice immunized by the i.n. (FIG. 12) and s.c. (FIG. 13) route were collected and cultured with different concentrations of the antigen. A total of 5×10^6 cells/ml spleen cells were cultured with 2 μg/ml of the MHC cI.I restricted β-Gal peptide (IFNγ) for 24 h and the β-Gal-Protein (IL-2 and 4) for 48 h. IFNγ producing CD8+ T cells were analyzed using BD Elispot kit according to the manufacturer's instructions. […] Bars represent Spot forming units of 10^6 splenocytes with subtracted background mean SFU±SE in each group. Each group consists of five mice. Data are representative of three separate experiments.
# Co-administration of β-Gal with 20 up to 30 μg glycolipids 5 and 6 induced strong cellular immune responses and enhanced levels of IFNγ, IL-2 and IL-4 in response to enhanced concentration of the β-Gal antigen in Balb/c mice. Balb/c mice were immunized by the i.n. or s.c. route with β-Gal alone or together with glycolipids 5 and 6 three times at 2-wk intervals. 10 days after the final immunization, the immunized mice were sacrificed. Splenocytes of mice immunized by the i.n. (FIG. 14) and s.c. (FIG. 15) route were collected and cultured with different concentrations of. A total of 5×10^6 cells/ml spleen cells were cultured with 2 μg/ml of the MHC class I restricted β-Gal peptide (IFNγ) for 24 h and the β-Gal-Protein (IL-2 and 4) for 48 h. IFNγ producing CD8+ T cells were analyzed using BD Elispot kit according to the manufacturer's instructions. […] Bars represent Spot forming units of 10^6 splenocytes with subtracted background mean SFU±SEM in each group. Each group consists of five mice. Data are representative of three separate experiments.
# Experimental protocol: Spleens from vaccinated mice were removed and pooled for analysis of cellular immune responses. The protocol for vaccination was identical to the protocol described in Example 2. Cells were grown in RPMI 1640 supplemented with 10% fetal calf serum, 100 U/ml of penicillin, 50 μg/ml of streptomycin, 5×10^−5 M 2-mercaptoethanol and 1 mM L-glutamine (GIBCO BRL, Karlsruhe, Germany) and maintained at 37° C. in a humidified 5% CO2 atmosphere. Lymph node and spleen cell suspensions were adjusted to 5×10^6 cells/ml in complete medium, cells were seeded with 100 μl per well in a flat-bottomed 96-well microtiter plate (Nunc) and plates were incubated for 4 days in the presence of different concentrations of soluble β-Gal.
# Splenocytes of mice immunized by the i.n. (FIG. 12) and s.c. (FIG. 13) route were collected and cultured with different concentrations of the antigen. A total of 5×10^6 cells/ml spleen cells were cultured with 2 μg/ml of the MHC cI.I restricted β-Gal peptide (IFNγ) for 24 h and the β-Gal-Protein (IL-2 and 4) for 48 h. IFNγ producing CD8+ T cells were analyzed using BD Elispot kit according to the manufacturer's instructions. […] Bars represent Spot forming units of 10^6 splenocytes with subtracted background mean SFU±SE in each group. Each group consists of five mice. Data are representative of three separate experiments.
# [3] = i.n. co-administration with β-Gal (FIG. 9 and FIG. 10)
# [4] = s.c. co-administration with β-Gal (FIG. 9 and FIG. 10)
SMILES,"IgG1 / IgG2a isotype pattern (Th2 / Th1) [1, 3]",enhancement of β-Galactosidase-specific IgG secretion vs β-Gal alone ([1]; i.n.),increase of β-Gal-specific IgG1 secretion vs β-Gal alone ([1]; i.n.),increase of β-Gal-specific IgG2a secretion vs β-Gal alone ([1]; i.n.),increase of β-Gal specific IgG1 secretion vs β-Gal alone [1],secretion of IgG2a isotype vs β-Gal alone [1],"IgG1 / IgG2a isotype pattern (Th2 / Th1) [1, 4]",spot forming units (SFU) secreting IFNγ [2],"secretion of IFNγ, IL-2 and IL-4 (SFU) vs β-Gal alone [2]",enhancement of β-Galactosidase-specific IgG2a isotype vs β-Gal alone ([1]; i.n.),spot forming units (SFU) secreting IFNγ / cytokine secretion [2],"secretion of IFNγ, IL-2 and IL-4 (SFU) vs control animals [2]",enhancement of β-Galactosidase-specific IgG secretion vs β-Gal alone ([1]; s.c.)
"CCCCCCCC/C=C\CCCCCCCCOCC(COCCCCCCCC/C=C\CCCCCCCC)O[C@@H]1O[C@H](CO)[C@@H](O[C@H]2O[C@H](CO)[C@@H](O)[C@H](O)[C@H]2O)[C@H](O)[C@H]1O (relative stereo) [glycolipid 1, 1,3-Di-O[cis-9-octadecenyl]-2-O-[4′-O-(α-D-glycopyranosyl)-β-D-glycopyranosyl]-sn-glycerol]",dominant Th2 pattern,no effect,no effect,no effect,2.5 fold,no enhanced secretion,dominant Th2 pattern,only a weak secretion,only weak enhanced secretion,,,,
"CCCCCCCCCCCCCCOCC(COCCCCCCCCCCCCCC)O[C@@H]1O[C@H](CO[C@H]2O[C@H](CO)[C@H](O)[C@H](O)[C@H]2O)[C@@H](O)[C@H](O)[C@H]1O [glycolipid 6, 1,3-di-O-tetradecyl-2-O-[6′-O-(α-D-galactopyranosyl)-β-D-glucopyranosyl]-sn-glycerol]",comparable expression of IgG1 and IgG2a isotypes,8 fold,24 fold,1.8 fold,no effect,no enhanced secretion,dominant Th2 response,only a weak secretion,only weak enhanced secretion,7 fold,reduced cytokine secretion,only a minor effect,
"CCCCCCCCCCCCCCOCC(COCCCCCCCCCCCCCC)O[C@@H]1O[C@H](CO)[C@@H](O[C@H]2O[C@H](CO)[C@@H](O)[C@H](O)[C@H]2O)[C@H](O)[C@H]1O [glycolipid 5, 1,3-Di-O-tetradecyl-2-O-[4′-O-(α-D-glucopyranosyl)-β-D-glucopyranosyl]-sn-glycerol]",dominant Th2 pattern,29 fold,50 fold,6 fold,2.2 fold,no enhanced secretion,dominant Th2 pattern,enhanced expression,only weak enhanced secretion,7 fold,enhanced expression,only a minor effect,7 fold
